# Where two headings read alike, the source gives them in different places.
# Molecular target: T1, hTLR7 (Homo sapiens, UniProt Q9NYK1)
# T1 construct: expressed in transfected cells; host or cells: HEK-Blue hTLR7 reporter cell line
# T1 sequence (Q9NYK1 27-1049): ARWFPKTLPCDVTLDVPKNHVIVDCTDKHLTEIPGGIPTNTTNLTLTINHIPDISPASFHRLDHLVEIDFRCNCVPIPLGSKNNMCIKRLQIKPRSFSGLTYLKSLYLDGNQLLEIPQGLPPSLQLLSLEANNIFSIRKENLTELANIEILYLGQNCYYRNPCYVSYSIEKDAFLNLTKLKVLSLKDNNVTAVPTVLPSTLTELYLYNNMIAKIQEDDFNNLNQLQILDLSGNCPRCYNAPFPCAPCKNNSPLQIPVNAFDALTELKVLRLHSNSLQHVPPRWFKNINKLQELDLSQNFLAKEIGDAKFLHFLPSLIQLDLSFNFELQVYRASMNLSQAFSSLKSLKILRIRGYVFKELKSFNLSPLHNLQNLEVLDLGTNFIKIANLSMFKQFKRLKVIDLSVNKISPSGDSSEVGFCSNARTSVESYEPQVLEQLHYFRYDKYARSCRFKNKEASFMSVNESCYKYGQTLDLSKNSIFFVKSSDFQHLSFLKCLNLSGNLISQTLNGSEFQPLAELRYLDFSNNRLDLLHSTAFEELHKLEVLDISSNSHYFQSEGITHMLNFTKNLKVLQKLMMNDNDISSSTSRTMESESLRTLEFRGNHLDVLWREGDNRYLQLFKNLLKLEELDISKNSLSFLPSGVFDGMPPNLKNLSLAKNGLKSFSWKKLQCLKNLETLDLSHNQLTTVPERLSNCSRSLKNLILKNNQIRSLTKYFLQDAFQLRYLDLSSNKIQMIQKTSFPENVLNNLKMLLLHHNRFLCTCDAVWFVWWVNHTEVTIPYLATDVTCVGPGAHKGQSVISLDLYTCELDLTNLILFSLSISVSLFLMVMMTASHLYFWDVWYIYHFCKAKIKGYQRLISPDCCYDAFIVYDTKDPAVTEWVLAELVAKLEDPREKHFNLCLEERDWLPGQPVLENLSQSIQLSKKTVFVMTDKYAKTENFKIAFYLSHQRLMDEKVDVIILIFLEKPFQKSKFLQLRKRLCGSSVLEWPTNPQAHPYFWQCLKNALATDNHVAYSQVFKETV
# Assay: HEK-Blue hTLR7 reporter assay (NF-kB-induced SEAP, Quanti-Blue)
# Assay type: cell-based
# Description: HEK-Blue™ hTLR7 cells were incubated in HEK-Blue™ Detection medium and stimulated with increasing concentrations of TLR7 or TLR8 or TLR7/8 agonists. […] The EC50 was determined from dose-response curve using Prism Software.
# [1] = Table 19, TLR7, drug-linkers with PEG shielding, read-out: EC50
# [2] = Table 18, TLR7, PEG shielding, read-out: EC50
# [3] = Table 12, TLR7 agonists attached to a linker, read-out: TLR Agonist Payload + Linkers EC50
# [4] = Table 15, drug linker, read-out: TLR Agonist + Linker (DL) - EC50
# [5] = Table 15, pAF containing final metabolite, read-out: TLR Agonist + Linker + nnAA (DL-pAF) - EC50
# [6] = Table 11, TLR7 activities, read-out: EC50
smiles,measurement,setting,value
"CCCCOC(=O)Nc1nc(OCCCC)nc2c1[nH]c(=O)n2Cc1ccc(CN2CCC(CCNC(=O)CON)CC2)cc1 [AXC-954, butyl (9-(4-((4-(2-(2-(aminooxy)acetamido)ethyl)piperidin-1-yl)methyl)benzyl)-2-butoxy-8-oxo-8,9-dihydro-7H-purin-6-yl)carbamate]",EC50,[1],0.111 µM
"CCCCOc1nc(N)c2[nH]c(=O)n(Cc3ccc(CN4CCC(CCNC(=O)[C@H](CCCNC(=N)N)NC(=O)CON)CC4)cc3)c2n1 [AXC-897, (S)—N-(2-(1-(4-((6-amino-2-butoxy-8-oxo-7H-purin-9(8H)-yl)methyl)benzyl)piperidin-4-yl)ethyl)-2-(2-(aminooxy)acetamido)-5-guanidinopentanamide]",EC50,"Table 13, TLR7, read-out: EC50",0.33 µM
"NOCC(=O)NCCC1CCN(Cc2ccc(Cn3ccc4c5nc(N)ncc5ccc43)cc2)CC1 [AXC-970, N-(2-(1-(4-((2-amino-7H-pyrrolo[2,3-h]quinazolin-7-yl)methyl)benzyl)piperidin-4-yl)ethyl)-2-(aminooxy)acetamide]",EC50,"Core 3 compounds, assay not given, read-out: EC50",> 10 µM
"CCCCOc1nc(N)c2[nH]c(=O)n(Cc3ccc(CN4CCC(CCNC(=O)[C@H](CCCCNC(=O)CON)NC(=O)OCc5ccc(NC(=O)[C@H](C)NC(=O)[C@@H](NC(C)=O)C(C)C)cc5)CC4)cc3)c2n1 [AXC-926, 4-((S)-2-((S)-2-acetamido-3-methylbutanamido)propanamido)benzyl ((S)-1-((2-(1-(4-((6-amino-2-butoxy-8-oxo-7,8-dihydro-9H-purin-9-yl)methyl)benzyl)piperidin-4-yl)ethyl)amino)-6-(2-(aminooxy)acetamido)-1-oxohexan-2-yl)carbamate]",EC50,[2],0.824 µM
"CCCCOc1nc(NC(=O)CCOCCOCCOC)c2[nH]c(=O)n(Cc3ccc(CN4CCC(CCNC(=O)CON)CC4)cc3)c2n1 [AXC-983, N-(9-(4-((4-(2-(2-(aminooxy)acetamido)ethyl)piperidin-1-yl)methyl)benzyl)-2-butoxy-8-oxo-8,9-dihydro-7H-purin-6-yl)-3-(2-(2-methoxyethoxy)ethoxy)propanamide]",EC50,[1],0.0533 µM
"CCCCOc1nc(N)c2[nH]c(=O)n(Cc3ccc(CN4CCC(CCNC(=O)c5ccc(N)c(OC)c5)CC4)cc3)c2n1 [AXC-895, 4-amino-N-(2-(1-(4-((6-amino-2-butoxy-8-oxo-7H-purin-9(8H)-yl)methyl)benzyl)piperidin-4-yl)ethyl)-3-methoxybenzamide]",TLR7 activity (comparison in words),,highest potency among different payloads tested
same,EC50,"Table 13, TLR7, read-out: EC50",0.011 µM
CCCCOc1nc(N)c2[nH]c(=O)n(Cc3ccc(CNC(=O)CON)cc3)c2n1 [AXC-862],EC50,[3],0.4 µM
same,EC50,[4],0.4 µM
same,EC50,[5],0.121 µM
"CCCCOc1nc(N)c2[nH]c(=O)n(Cc3ccc(CN4CCC(CCNC(=O)[C@@H](N)Cc5ccc(O)cc5)CC4)cc3)c2n1 [AXC-934, (S)-2-amino-N-(2-(1-(4-((6-amino-2-butoxy-8-oxo-7,8-dihydro-9H-purin-9-yl)methyl)benzyl)piperidin-4-yl)ethyl)-3-(4-hydroxyphenyl)propanamide]",EC50,[1],0.0103 µM
"CCCCOc1nc(N)c2[nH]c(=O)n(Cc3ccc(CN4CCC(CCNC(=O)C(C)C)CC4)cc3)c2n1 [AXC-890, N-(2-(1-(4-((6-amino-2-butoxy-8-oxo-7H-purin-9(8H)-yl)methyl)benzyl)piperidin-4-yl)ethyl)isobutyramide]",EC50,[6],0.0153 µM
"CCCCc1nc2c(N)nc3ccccc3c2n1CCCCNC(=O)c1cc(F)c(NC(=O)[C@H](CCCNC(N)=O)NC(=O)[C@@H](NC(=O)CCOCCON)C(C)C)c(F)c1 [AXC-802, N-(4-(4-amino-2-butyl-1H-imidazo[4,5-c]quinolin-1-yl)butyl)-4-((S)-2-((S)-2-(3-(2-(aminooxy)ethoxy)propanamido)-3-methylbutanamido)-5-ureidopentanamido)-3,5-difluorobenzamide]",EC50,"Table 10, read-out: TLR7 EC50",> 5 µM
"CCCCc1nc2c(N)nc3ccccc3c2n1CCCCNC(=O)c1cccc(N)c1 [AXC-803, 3-amino-N-(4-(4-amino-2-butyl-1H-imidazo[4,5-c]quinolin-1-yl)butyl)benzamide]",EC50,"Table 10, read-out: TLR7 EC50",0.332 µM
"CCCCOc1nc(N)c2[nH]c(=O)n(Cc3ccc(CNCCCCCCNC(=O)CON)cc3)c2n1 [AXC-882, N-(6-(4-((6-amino-2-butoxy-8-oxo-7H-purin-9(8H)-yl)methyl)benzylamino)hexyl)-2-(aminooxy)acetamide]",EC50,[3],0.551 µM
same,EC50,[4],0.551 µM
same,EC50,[5],0.343 µM
"CCCCOc1nc(N)c2[nH]c(=O)n(Cc3ccc(CN4CCC(CCNC(=O)[C@H](CCCCNC(=O)CON)NC(=O)OCc5ccc(NC(=O)[C@H](C)NC(=O)[C@@H](NC(=O)CCOCCOCCOCCOCCOCCOCCOCCOCCOCCOCCOCCOCCOCCOCCOCCOCCOCCOCCOCCOCCOCCOCCOCCOC)C(C)C)cc5)CC4)cc3)c2n1 [AXC-925, 4-((S)-2-((S)-3-methyl-2-PEG24-amidobutanamido)propanamido)benzyl ((S)-1-((2-(1-(4-((6-amino-2-butoxy-8-oxo-7,8-dihydro-9H-purin-9-yl)methyl)benzyl)piperidin-4-yl)ethyl)amino)-6-(2-(aminooxy)acetamido)-1-oxohexan-2-yl)carbamate]",EC50,[2],1.59 µM
"CCCCc1nc2c(N)nc3cccnc3c2n1CCCCNC(=O)c1cnccn1 [AXC-732, N-(4-(4-amino-2-butyl-1H-imidazo[4,5-c][1,5]naphthyridin-1-yl)butyl)pyrazine-2-carboxamide]",EC50,"Table 10, read-out: TLR7 EC50",0.256 µM
"CCCCOc1nc(N)c2[nH]c(=O)n(Cc3ccc(CN4CCC(CCNC(=O)CCC(CCC(=O)NCCC5CCN(Cc6ccc(Cn7c(=O)[nH]c8c(N)nc(OCCCC)nc87)cc6)CC5)NC(=O)CON)CC4)cc3)c2n1 [AXC-889, N1,N7-bis(2-(1-(4-((6-amino-2-butoxy-8-oxo-7H-purin-9(8H)-yl)methyl)benzyl)piperidin-4-yl)ethyl)-4-(2-(aminooxy)acetamido)heptanediamide]",EC50,[3],0.697 µM
"CCCCOc1nc(N)c2[nH]c(=O)n(Cc3ccc(CN4CCC(CCNC(=O)[C@@H](CCCCNC(=O)CCCC(=O)NCCOCCOCCOCCOCCC(=O)NC(COCCC(=O)NCCOCCOCCOCCOCCOCCOCCOCCOC)(COCCC(=O)NCCOCCOCCOCCOCCOCCOCCOCCOC)COCCC(=O)NCCOCCOCCOCCOCCOCCOCCOCCOC)NC(=O)CON)CC4)cc3)c2n1 [AXC-961, (R)-N1-(6-((2-(1-(4-((6-amino-2-butoxy-8-oxo-7,8-dihydro-9H-purin-9-yl)methyl)benzyl)piperidin-4-yl)ethyl)amino)-5-(2-(aminooxy)acetamido)-6-oxohexyl)-N5-(dPEG4)-(mPEG8)3-glutaramide]",EC50,[1],0.856 µM
"CCCCOc1nc(N)c2[nH]c(=O)n(Cc3ccc(CN4CCC(CCNC(=O)[C@H](CCCCNC(=O)CON)NC(=O)CCCC(=O)NCCOCCOCCOCCOCCC(=O)NC(COCCC(=O)NCCOCCOCCOCCOCCOCCOCCOCCOC)(COCCC(=O)NCCOCCOCCOCCOCCOCCOCCOCCOC)COCCC(=O)NCCOCCOCCOCCOCCOCCOCCOCCOC)CC4)cc3)c2n1 [AXC-945, (S)—N-(2-(1-(4-((6-amino-2-butoxy-8-oxo-7,8-dihydro-9H-purin-9-yl)methyl)benzyl)piperidin-4-yl)ethyl)-6-(2-(aminooxy)acetamido)-2-dPEG4-(m-dPEG8)3-amidohexanamide]",EC50,[1],0.232 µM
"CCCCNc1nc(N)c2[nH]c(=O)n(Cc3ccc(OCCN(C)C)nc3)c2n1 [DSR-6434, reference compound]",EC50,"Table 10, read-out: TLR7 EC50",0.0092 µM
same,EC50,[6],0.0158 µM
same,EC50,[3],0.0148 µM
same,EC50,"Table 13, TLR7, read-out: EC50",0.009 µM
same,EC50,"Table 14, read-out: TLR7 EC50",0.0105 µM
same,EC50,[4],0.015 µM
same,EC50,[5],0.011 µM
same,EC50,[1],0.014 µM
"CCCCOc1nc(N)c2[nH]c(=O)n(Cc3ccc(CNCCCCCCN)cc3)c2n1 [AXC-881, 6-amino-9-(4-((6-aminohexylamino)methyl)benzyl)-2-butoxy-7H-purin-8(9H)-one]",EC50,[6],0.0873 µM
"CCCCOc1nc(N)c2[nH]c(=O)n(Cc3ccc(CN4CCC(CCNC(=O)[C@@H](CCCCN)NC(=O)CON)CC4)cc3)c2n1 [AXC-958, (R)-6-amino-N-(2-(1-(4-((6-amino-2-butoxy-8-oxo-7,8-dihydro-9H-purin-9-yl)methyl)benzyl)piperidin-4-yl)ethyl)-2-(2-(aminooxy)acetamido)hexanamide]",EC50,[1],0.0396 µM

# — patent US20230302150A1, “ANTIBODY-TLR AGONIST CONJUGATES, METHODS AND USES THEREOF” (Ambrx, Inc., priority 2020, published 2023)
